Measurements reported in patent US20210069198A1 (HANYI BIO-TECHNOLOGY (BEIJING) CO., LTD., priority 2017, published 2021).

Tested on: rat anxiety behavior induced by high-dose intake of caffeine
Assay: Elevated plus-maze test, Test 1: CBD against caffeine-induced anxiety behavior
Format: in vivo, wistar rats
Method: Test Animals: 50 SPF male wistar rats (180-200 g). Feeding Conditions: SPF animal houses, free feeding, 12 h light/12 h darkness.
Each CBD administration group was also intragastrically administrated with a corresponding dose of a CBD soybean oil solution at the same time, and then an elevated plus-maze test was conducted within 30 minutes after administration.
Elevated Plus-maze (EMP) Test: A maze was cross-shaped and consists of 2 open arms (OAs), two closed arms (CAs) and a central platform. The maze was fixed on a support, 50 cm above the ground. A camera was placed above the central platform. The behaviors of rats were recorded and analyzed through a computer. The test was conducted in a quiet shaded condition. Before the test, the rats to be tested were placed in one rat cage. After freely exploring for 5 minutes, the rats were quickly placed on the central platform of the EMP. The observation test was started immediately after release. Each rat was tested for five minutes. After each rat was tested, the maze was thoroughly cleaned with a towel dipped in clean water and low-concentration ethanol. After the ethanol volatilizes and diffuses, the test on the next rat began.
(1) Open arm entry (OE): the number of entries into any open arm was based on the fact that four paws of each rat were located within the arms, and when any paw was completely withdrawn from the arms halfway, the current entry event was deemed as being completed.
(2) Open arm time (OT): it was measured in second.
(3) Closed arm entry (CE): the number of entries into any closed arm, which was determined based on the same standard as OE.
(4) Closed arm time (CT): it was measured in second.
(5) Calculation of the proportion of the number of entries into the open arm (OE %): namely, OE/(OE+CE)×100%.
(6) Proportion of residence time in the open arms (OT %): namely, OT/(OT+CT)×100%. OE % and OT % were used as indexes for evaluating the anxiety state of rats.
The data was expressed with x±s. One-way analysis of variance (one way ANOVA) was used to compare multi-sample means, and t test was used for inter-group comparison.

[1] = CBD 1 mg/kg intragastric together with 60 mg/kg caffeine
[2] = CBD 10 mg/kg intragastric together with 60 mg/kg caffeine
[3] = CBD 100 mg/kg intragastric together with 60 mg/kg caffeine
[4] = caffeine model group, 60 mg/kg caffeine intragastric, no CBD

C=C(C)[C@@H]1CCC(C)=C[C@H]1c1c(O)cc(CCCCC)cc1O [CBD, Cannabidiol]
OE (open arm entry) (CBD 1 mg/kg in soybean oil intragastric together with 60 mg/kg caffeine): 3.2 ± 0.45 times
CE (closed arm entry) [1]: 7.0 ± 0.92 times
CT (closed arm time) [1]: 244 ± 5.14 s
OE % (proportion of entries into the open arm) [1]: 31.37%
OT % (proportion of residence time in the open arms) [1]: 19.24%
OT (open arm time) [1]: 58.1 ± 3.30 s
CE (closed arm entry) [2]: 5.3 ± 1.07 times
CT (closed arm time) [2]: 214 ± 4.01 s
OE % (proportion of entries into the open arm) [2]: 47.52%
OE (open arm entry) [2]: 4.8 ± 0.91 times
OT % (proportion of residence time in the open arms) [2]: 28.43%
OT (open arm time) [2]: 85 ± 2.07 s
CE (closed arm entry) [3]: 4.5 ± 0.91 times
CT (closed arm time) [3]: 201 ± 3.05 s
OE % (proportion of entries into the open arm) [3]: 54.00%
OE (open arm entry) [3]: 5.4 ± 0.25 times
OT % (proportion of residence time in the open arms) [3]: 33.22%
OT (open arm time) [3]: 100 ± 1.32 s
effect on the anxiety behavior of rats (in words) (CBD 1-100 mg/kg intragastric together with 60 mg/kg caffeine): significant effect on inhibiting the anxiety behavior

Cn1c(=O)c2c(ncn2C)n(C)c1=O [Caffeine]
CE (closed arm entry) [4]: 7.8 ± 0.11 times
CT (closed arm time) [4]: 253 ± 5.09 s
OE % (proportion of entries into the open arm) [4]: 21.21%
OT (open arm time) [4]: 42.9 ± 1.89 s
OE (open arm entry) (caffeine model group, 60 mg/kg caffeine saline solution intragastric, no CBD, EPM within 30 min, 5 min test): 2.1 ± 0.78 times
